Reference: patent publication US9655887B2, “Pharmaceutical composition and the use thereof, and application regime of said pharmaceutical composition for on-demand contraception” (BAYER PHARMA AKTIENGESELLSCHAFT, priority 2013, dated 2017)

Target: EP2 subtype of the human PGE2 receptor (hEP2 receptor) (Homo sapiens, UniProt P43116)
Test: cAMP antagonism test, human prostaglandin E2 (subtype EP2) receptor signal
Assay type: cell-based
Summary of the method: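 Cells (625000 cells/ml, mixed with cAMP-d2) were preincubated 20 min at RT with compound ([…]). They were then stimulated 60 min at RT with a 3× PGE2 solution (1.5 nM) in PBS-IBMX and lysed for 20 min. cAMP was read by HTRF as the 665/620 nm ratio ×10000, with antagonism seen as a rise in FRET signal.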

Sequence of EP2 subtype of the human PGE2 receptor (hEP2 receptor) (P43116 whole entry): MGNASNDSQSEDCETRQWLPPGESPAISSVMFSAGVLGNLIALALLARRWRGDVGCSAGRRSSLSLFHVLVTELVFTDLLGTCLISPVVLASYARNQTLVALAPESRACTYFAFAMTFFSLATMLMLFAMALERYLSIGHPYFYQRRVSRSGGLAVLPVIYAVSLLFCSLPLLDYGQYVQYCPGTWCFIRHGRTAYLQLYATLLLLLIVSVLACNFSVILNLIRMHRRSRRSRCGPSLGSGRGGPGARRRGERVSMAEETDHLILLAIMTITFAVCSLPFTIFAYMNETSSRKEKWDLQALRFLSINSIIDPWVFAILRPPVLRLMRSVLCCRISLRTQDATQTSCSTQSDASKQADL

IC50, > 50 nM:
COCCNC(=O)c1ccc2nn(CC3CN(C(=O)c4ccc(SC(F)(F)F)cc4)C3)cc2c1C [Example E88, N-(2-methoxyethyl)-4-methyl-2-[(1-{4-[(trifluoromethyl)sulphanyl]benzoyl}azetidin-3-yl)methyl]-2H-indazole-5-carboxamide]
COCCNC(=O)c1ccc2nn(CC3CN(C(=O)c4ccc(OC(F)(F)F)cc4)C3)cc2c1C [Example E89, N-(2-methoxyethyl)-4-methyl-2-({1-[4-(trifluoromethoxy)benzoyl]azetidin-3-yl}-methyl)-2H-indazole-5-carboxamide]
COCCNC(=O)c1ccc2nn(CC3CN(C(=O)c4ccc(C(F)(F)F)cc4F)C3)cc2c1C [Example E90, 2-({1-[2-fluoro-4-(trifluoromethyl)benzoyl]azetidin-3-yl}methyl)-N-(2-methoxyethyl)-4-methyl-2H-indazole-5-carboxamide]
COCCNC(=O)c1ccc2nn(CC3CN(C(=O)c4ccc(Cl)cc4F)C3)cc2c1C [Example E91, 2-{[1-(4-chloro-2-fluorobenzoyl)azetidin-3-yl]methyl}-N-(2-methoxyethyl)-4-methyl-2H-indazole-5-carboxamide]
COCCNC(=O)c1ccc2nn(CC3CN(C(=O)c4ccc(C(F)(F)F)c(F)c4)C3)cc2c1C [Example E92, 2-({1-[3-fluoro-4-(trifluoromethyl)benzoyl]azetidin-3-yl}methyl)-N-(2-methoxyethyl)-4-methyl-2H-indazole-5-carboxamide]
COCCNC(=O)c1ccc2nn(CC3CN(C(=O)c4ccc(Cl)c(C(F)(F)F)c4)C3)cc2c1C [Example E93, 2-({1-[4-chloro-3-(trifluoromethyl)benzoyl]azetidin-3-yl}methyl)-N-(2-methoxyethyl)-4-methyl-2H-indazole-5-carboxamide]
COCCNC(=O)c1ccc2nn(CC3CN(C(=O)c4ccc(C5CC5)cc4)C3)cc2c1C [Example E94, 2-{[1-(4-cyclopropylbenzoyl)azetidin-3-yl]methyl}-N-(2-methoxyethyl)-4-methyl-2H-indazole-5-carboxamide]
COCCNC(=O)c1ccc2nn(CC3CN(C(=O)c4ccc(Oc5ccc(C(F)(F)F)cc5)cc4)C3)cc2c1C [Example E95, N-(2-methoxyethyl)-4-methyl-2-[(1-{4-[4-(trifluoromethyl)phenoxy]benzoyl}azetidin-3-yl)methyl]-2H-indazole-5-carboxamide]
Cc1c(C(=O)NCCOC2CC2)ccc2nn(CC3CN(C(=O)c4ccc(OC(F)(F)F)cc4)C3)cc12 [Example E100, N-[2-(cyclopropyloxy)ethyl]-4-methyl-2-({1-[4-(trifluoromethoxy)benzoyl]azetidin-3-yl}methyl)-2H-indazole-5-carboxamide]
Cc1c(C(=O)NCCOC2CCC2)ccc2nn(CC3CN(C(=O)c4ccc(OC(F)(F)F)cc4)C3)cc12 [Example E101, N-[2-(cyclobutyloxy)ethyl]-4-methyl-2-({1-[4-(trifluoromethoxy)benzoyl]azetidin-3-yl}methyl)-2H-indazole-5-carboxamide]
Cc1c(C(=O)NCCOCC2CC2)ccc2nn(CC3CN(C(=O)c4ccc(Cl)cc4)C3)cc12 [Example E102, 2-{[1-(4-chlorobenzoyl)azetidin-3-yl]methyl}-N-[2-(cyclopropylmethoxy)ethyl]-4-methyl-2H-indazole-5-carboxamide]
Cc1c(C(=O)NCCOCC2CC2)ccc2nn(CC3CN(C(=O)c4ccc(Oc5ccc(F)cc5)cc4)C3)cc12 [Example E103, N-[2-(cyclopropylmethoxy)ethyl]-2-({1-[4-(4-fluorophenoxy)benzoyl]azetidin-3-yl}-methyl)-4-methyl-2H-indazole-5-carboxamide]
Cc1ccc(C(=O)N2CC(Cn3cc4c(C)c(C(=O)NCCOCC5CC5)ccc4n3)C2)cc1 [Example E104, N-[2-(cyclopropylmethoxy)ethyl]-4-methyl-2-{[1-(4-methylbenzoyl)azetidin-3-yl]-methyl}-2H-indazole-5-carboxamide]
Cc1c(C(=O)NCCOC(F)(F)F)ccc2nn(CC3CN(C(=O)c4ccc(Cl)cc4)C3)cc12 [Example E105, 2-{[1-(4-chlorobenzoyl)azetidin-3-yl]methyl}-4-methyl-N-[2-(trifluoromethoxy)ethyl]-2H-indazole-5-carboxamide]
Cc1c(C(=O)NCCOCC2CC2)ccc2nn(CC3CN(C(=O)c4ccc(-c5ccc(F)cc5)cc4)C3)cc12 [Example E107, N-[2-(cyclopropylmethoxy)ethyl]-2-({1-[(4′-fluorobiphenyl-4-yl)carbonyl]azetidin-3-yl}methyl)-4-methyl-2H-indazole-5-carboxamide]
COCCNC(=O)c1ccc2nn(CC3CN(C(=O)c4ccc(-c5ccc(F)cc5)cc4)C3)cc2c1C [Example E108, 2-({1-[(4′-fluorobiphenyl-4-yl)carbonyl]azetidin-3-yl}methyl)-N-(2-methoxyethyl)-4-methyl-2H-indazole-5-carboxamide]
COCCNC(=O)c1ccc2nn(CC3CN(C(=O)c4ccc(Oc5ccc(F)cc5)cc4)C3)cc2c1C [Example E109, 2-({1-[4-(4-fluorophenoxy)benzoyl]azetidin-3-yl}methyl)-N-(2-methoxyethyl)-4-methyl-2H-indazole-5-carboxamide]
Cc1c(C(=O)NCCOCC(F)(F)F)ccc2nn(CC3CN(C(=O)c4ccc(Cl)cc4)C3)cc12 [Example E112, 2-{[1-(4-chlorobenzoyl)azetidin-3-yl]methyl}-4-methyl-N-[2-(2,2,2-trifluoroethoxy)-ethyl]-2H-indazole-5-carboxamide]
Cc1c(C(=O)NCCOCC(F)(F)F)ccc2nn(CC3CN(C(=O)c4ccc(Oc5ccc(C(F)(F)F)cc5)cc4)C3)cc12 [Example E113, 4-methyl-N-[2-(2,2,2-trifluoroethoxy)ethyl]-2-[(1-{4-[4-(trifluoromethyl)phenoxy]-benzoyl}azetidin-3-yl)methyl]-2H-indazole-5-carboxamide]
Cc1c(C(=O)NCC(F)(F)F)ccc2nn(CC3CN(C(=O)c4ccc(Oc5ccc(C(F)(F)F)cc5)cc4)C3)cc12 [Example E114, 4-methyl-N-(2,2,2-trifluoroethyl)-2-[(1-{4-[4-(trifluoromethyl)phenoxy]benzoyl}-azetidin-3-yl)methyl]-2H-indazole-5-carboxamide]
Cc1c(C(=O)NCC(F)(F)F)ccc2nn(CC3CN(C(=O)c4ccc(Oc5ccc(Cl)cc5)cc4)C3)cc12 [Example E115, 2-({1-[4-(4-chlorophenoxy)benzoyl]azetidin-3-yl}methyl)-4-methyl-N-(2,2,2-trifluoro-ethyl)-2H-indazole-5-carboxamide]
COCCNC(=O)c1ccc2nn(CC3CN(C(=O)c4ccc(Oc5ccc(Cl)cc5)cc4)C3)cc2c1C [Example E116, 2-({1-[4-(4-chlorophenoxy)benzoyl]azetidin-3-yl}methyl)-N-(2-methoxyethyl)-4-methyl-2H-indazole-5-carboxamide]
COCCNC(=O)c1ccc2nn(CC3CN(C(=O)c4ccc(Oc5ccc(C(F)(F)F)cn5)cc4)C3)cc2c1C [Example E117, N-(2-methoxyethyl)-4-methyl-2-{[1-(4-{[5-(trifluoromethyl)pyridin-2-yl]oxy}benzoyl)-azetidin-3-yl]methyl}-2H-indazole-5-carboxamide]
Cc1c(C(=O)NCC(F)(F)F)ccc2nn(CC3CCN(C(=O)c4ccc(SC(F)(F)F)cc4)CC3)cc12 [Example E125, 4-methyl-N-(2,2,2-trifluoroethyl)-2-[(1-{4-[(trifluoromethyl)sulphanyl]benzoyl}-piperidin-4-yl)methyl]-2H-indazole-5-carboxamide]
Cc1c(C(=O)NCC(F)(F)F)ccc2nn(CC3CCN(C(=O)c4ccc(Oc5ccc(C(F)(F)F)cn5)cc4)CC3)cc12 [Example E127, 4-methyl-N-(2,2,2-trifluoroethyl)-2-{[1-(4-{[5-(trifluoromethyl)pyridin-2-yl]oxy}-benzoyl)piperidin-4-yl]methyl}-2H-indazole-5-carboxamide]
Cc1c(C(=O)NCC(F)(F)F)ccc2nn(CC3CCN(C(=O)c4ccc(Oc5ccc(C(F)(F)F)nc5)cc4)CC3)cc12 [Example E128, 4-methyl-N-(2,2,2-trifluoroethyl)-2-{[1-(4-{[6-(trifluoromethyl)pyridin-3-yl]oxy}-benzoyl)piperidin-4-yl]methyl}-2H-indazole-5-carboxamide]
Cc1c(C(=O)NCC(F)(F)F)ccc2nn(CC3CCN(C(=O)c4ccc(Oc5cccc(F)c5)cc4)CC3)cc12 [Example E131, 2-({1-[4-(3-fluorophenoxy)benzoyl]piperidin-4-yl}methyl)-4-methyl-N-(2,2,2-trifluoro-ethyl)-2H-indazole-5-carboxamide]
Cc1c(C(=O)NCC(F)(F)F)ccc2nn(CC3CCN(C(=O)c4ccc(Oc5cccc(C(F)(F)F)c5)cc4)CC3)cc12 [Example E132, 4-methyl-N-(2,2,2-trifluoroethyl)-2-[(1-{4-[3-(trifluoromethyl)phenoxy]benzoyl}-piperidin-4-yl)methyl]-2H-indazole-5-carboxamide]
Cc1c(C(=O)NCC(F)(F)F)ccc2nn(CC3CCN(C(=O)c4ccc(Oc5ccc(F)c(F)c5)cc4)CC3)cc12 [Example E137, 2-({1-[4-(3,4-difluorophenoxy)benzoyl]piperidin-4-yl}methyl)-4-methyl-N-(2,2,2-trifluoroethyl)-2H-indazole-5-carboxamide]
Cc1c(C(=O)NCC(F)(F)F)ccc2nn(CC3CCN(C(=O)c4ccc(-c5ccc(C(F)(F)F)cc5)cc4)CC3)cc12 [Example E138, 4-methyl-N-(2,2,2-trifluoroethyl)-2-[(1-{[4′-(trifluoromethyl)biphenyl-4-yl]carbonyl}-piperidin-4-yl)methyl]-2H-indazole-5-carboxamide]
